In US20080170993A1, “THYMIDINE ANALOGS FOR IMAGING” (priority 2006, published 2008):

Target: T1, recombinant thymidine kinase 1 (TK-1) (Homo sapiens, UniProt P04183)
T1 sequence (P04183 1-234): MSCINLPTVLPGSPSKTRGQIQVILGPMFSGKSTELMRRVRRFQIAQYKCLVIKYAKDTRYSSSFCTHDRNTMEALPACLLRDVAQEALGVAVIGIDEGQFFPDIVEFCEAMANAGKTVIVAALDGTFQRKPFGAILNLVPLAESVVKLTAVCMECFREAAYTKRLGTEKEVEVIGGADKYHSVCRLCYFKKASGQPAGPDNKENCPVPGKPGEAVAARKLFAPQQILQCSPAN
Details: cold 19F analogues; 100 μM ATP+P-32-ATP, 10-60 ng thymidine kinase; TLC, phosphoimager; thymidine 100%

In vitro-Phosphorylation | Structure (SMILES)
12% ± 1.1% | Cc1cn([C@H]2C[C@H](O)[C@@H](CO)O2)c(=O)n(CCCNC(=O)c2ccc(F)c(C(F)(F)F)c2)c1=O
12% ± 2.8% | Cc1cn([C@H]2C[C@H](O)[C@@H](CO)O2)c(=O)n(CCCCN(C)C(=O)c2ccc(F)c(C#N)c2)c1=O
19% ± 3.7% | Cc1cn([C@H]2C[C@H](O)[C@@H](CO)O2)c(=O)n(CCNC(=O)CNC(=O)C(CF)NS(=O)(=O)c2c(C(C)C)cc(C(C)C)cc2C(C)C)c1=O (some centres unmarked)
17% ± 10.2% | Cc1cn([C@H]2C[C@H](O)[C@@H](CO)O2)c(=O)n(CCCCCCNC(=O)CNC(=O)C(CF)NS(=O)(=O)c2c(C(C)C)cc(C(C)C)cc2C(C)C)c1=O (some centres unmarked)
49% ± 9.9% | N#Cc1cc(C(=O)NCCCCCCn2c(=O)c(C(F)(F)F)cn([C@H]3C[C@H](O)[C@@H](CO)O3)c2=O)ccc1F
36% ± 6.5% | Cc1cn([C@H]2C[C@H](O)[C@@H](CO)O2)c(=O)n(CCCCCCCNC(=O)c2ccc(F)c(C#N)c2)c1=O
26% ± 4.0% | Cc1cn([C@H]2C[C@H](O)[C@@H](CO)S2)c(=O)n(CCCCCCF)c1=O

Further lines, the molecule ahead of its results:

Structure (SMILES) | In vitro-Phosphorylation
Cc1cn([C@H]2C[C@H](O)[C@@H](CO)O2)c(=O)n(CCCNC(=O)Cc2ccc([Si](F)(C(C)C)C(C)C)cc2)c1=O | 17% ± 1.5%
Cc1cn([C@H]2C[C@H](O)[C@@H](CO)O2)c(=O)n(CCCNC(=O)CCc2cccc([Si](F)(C(C)C)C(C)C)c2)c1=O | 15% ± 6.1%
Cc1cn([C@H]2C[C@H](O)[C@@H](CO)O2)c(=O)n(CC#CCF)c1=O | 23% ± 8.0%
Cc1cn([C@H]2C[C@H](O)[C@@H](CO)O2)c(=O)n(Cc2ccc(F)cc2)c1=O | 34% ± 18.6%
Cc1cn([C@H]2C[C@H](O)[C@@H](CO)S2)c(=O)[nH]c1=O | 70% ± 9.3%
Cc1cn([C@H]2C[C@H](F)[C@@H](CO)O2)c(=O)[nH]c1=O [FLT, 3′-[F-18]fluoro-3′-deoxythymidine, reference compound] | 58% ± 11.9%
Cc1cn([C@H]2C[C@H](O)[C@@H](CO)O2)c(=O)n(CCCCF)c1=O [TD-1] | 13% ± 5.4%
Cc1cn([C@H]2C[C@H](O)[C@@H](CO)O2)c(=O)n(CCCCCCF)c1=O [TD-2] | 30% ± 3.7%
Cc1cn([C@H]2C[C@H](O)[C@@H](CO)O2)c(=O)n(CCCCCCNC(=O)c2ccc(F)c(C#N)c2)c1=O [TD-8] | 41% ± 9.5%
Cc1cn([C@H]2C[C@H](O)[C@@H](CO)O2)c(=O)n(CCCCNC(=O)c2ccc(F)c(C#N)c2)c1=O [TD-9] | 21% ± 4.6%
